# From paper PMC5267425, “Identification of small molecule modulators of HIV-1 Tat and Rev protein accumulation” (Retrovirology, 2017)
# System: alternative splicing of host transcripts in HeLa rtTA HIV∆Mls cells
# Assay: RT-PCR of host alternative splicing events (PSI), capillary electrophoresis
# Type: cell-based
# Experimental: To assess the effect of compounds on expression/alternative splicing of cellular RNA, two approaches were used. For both, total RNA was prepared from DMSO or compound-treated cells. In the first assay, samples were assayed by medium throughput RT-PCR to determine the inclusion levels of alternatively spliced exons and splice sites located in 73 selected events. 73 primer sets containing a fluorescently (5-FAM) labeled primer for each, were used in RT-PCR. PCR products generated were denatured in formamide and quantified using ABI Prism capillary sequencer (Life Technologies). The fragment analysis was performed on the PeakScanner software (Life Technologies) in batch mode and automated using custom scripts written in Python. The inclusion level of each exon was calculated as the amount of transcripts carrying the alternative exon relative to the total amount of all transcripts detected in the PCR reaction and results are summarized for compound-treatment in comparison to DMSO treatment. In the second assay, extracted RNA was processed using the Illumina TruSeq RNA Sample Preparation Kit (Illumina) according to the manufacturer’s instructions. The cDNA library generated was validated (passed quality control on a Bioanalyzer 1000 DNA chip (Agilent)), normalized and pooled for cluster generation. cDNA libraries were sequenced on the Illumina HiSeq 2500 (paired-end, 125 bp) with version 4 chemistry following manufacturer’s protocols. The full human genome and transcriptomic sequences were downloaded from the UCSC Genome Browser (genome.ucsc.edu) database and Ensembl (www.ensembl.org), respectively, as described by Irimia et al.. Exon annotations and genomic coordinates for alternative splicing (AS) analysis were derived from tables downloaded from the UCSC Genome Browser database. To determine gene expression (GE) or alternative splicing (AS) changes in an unbiased way, the effective number of unique mappable positions in each transcript (i.e. the effective length) was determined by aligning sequences with unique transcriptomic alignment to the human genome using Bowtie. Reads with one unique genomic alignment were then aligned against the canonical transcriptome and, for each transcript, the number of reads with one unique transcriptomic alignment were counted. The expression level of genes was quantified as corrected ‘reads per kilobase of exon model per million mapped reads’ (cRPKM), a widely used metric to estimate gene expression levels. The expression cutoff was 0.5 cRPKM, corresponding to the transcript of the gene being present if there were ≥10 reads that mapped uniquely to a single genomic locus. Approximately 19,847 Ensembl annotated protein-coding genes were compared to create a gene list of differentially expressed genes. Genes were considered differentially expressed if fold changes in cRPKM was ≥2 in compound-treated versus DMSO-treated samples.
# [1] = of 70 AS events, 791 30 µM, 833 2 µM
smiles,measurement,setting,value
"Cc1cc(NCc2cccnc2)n2ncc(-c3ccc(Cl)cc3)c2n1 [Compound 791, 3-(4-chlorophenyl)-5-methyl-N-(3-pyridinylmethyl)pyrazolo[1,5-a]pyrimidin-7-amine]",DPSI AGPAT4_1 chr6:161506598-161506735,"9147791 minus DMSO, mean n=3",-4.00%
same,DPSI AGPAT4_1 chr6:161507269-161507439,"9147791 minus DMSO, mean n=3",-6.33%
same,DPSI APLP2_1 chr11:129498717-129498884,"9147791 minus DMSO, mean n=3",1.33%
same,DPSI APP_1 chr21:26291546-26291602,"9147791 minus DMSO, mean n=3",0.33%
same,DPSI APP_1 chr21:26294201-26294368,"9147791 minus DMSO, mean n=3",-1.33%
same,DPSI ATP6V0A1_1 chr17:37919833-37920004,"9147791 minus DMSO, mean n=3",2.00%
same,DPSI CA12_1 chr15:61406400-61406485,"9147791 minus DMSO, mean n=3",-0.33%
same,DPSI CA12_1 chr15:61407349-61407382,"9147791 minus DMSO, mean n=3",4.67%
same,DPSI CASP9_1 chr1:15703693-15703840*,"9147791 minus DMSO, mean n=3",-1.33%
same,DPSI CAST_1 chr5:96090613-96090669,"9147791 minus DMSO, mean n=3",5.33%
same,DPSI CLSTN1_1 chr1:9720143-9720199,"9147791 minus DMSO, mean n=3",-8.67%
same,DPSI CLSTN1_2 chr1:9739126-9739155,"9147791 minus DMSO, mean n=3",-2.33%
same,DPSI CRBN_1 chr3:3191846-3191950,"9147791 minus DMSO, mean n=3",0.00%
same,DPSI CRBN_1 chr3:3191950-3191953,"9147791 minus DMSO, mean n=3",0.00%
same,DPSI CTNND1_1 chr11:57318058-57318129,"9147791 minus DMSO, mean n=3",-4.33%
same,DPSI DNM1L_1 chr12:32782066-32782143,"9147791 minus DMSO, mean n=3",9.00%
same,DPSI DNM1L_1 chr12:32782465-32782497,"9147791 minus DMSO, mean n=3",-2.00%
same,DPSI DRCTNNB1A_1 chr7:22953096-22953391,"9147791 minus DMSO, mean n=3",-8.00%
same,DPSI EIF4A2_1 chr7:187988792-187988899,"9147791 minus DMSO, mean n=3",3.33%
same,DPSI EIF4A2_1 chr7:187988899-187988904,"9147791 minus DMSO, mean n=3",2.00%
same,DPSI EIF4H_1 chr7:73242512-73242572,"9147791 minus DMSO, mean n=3",0.00%
same,DPSI ERC1_1 chr12:1091641-1091725,"9147791 minus DMSO, mean n=3",2.67%
same,DPSI EXOC7_1 chr17:71598005-71598035,"9147791 minus DMSO, mean n=3",-6.00%
same,DPSI EXOC7_1 chr17:71598819-71598911,"9147791 minus DMSO, mean n=3",-4.67%
same,DPSI FAM62B_1 chr7:158238233-158238295,"9147791 minus DMSO, mean n=3",-8.33%
same,DPSI FAM104A_1 chr17:68720412-68720474,"9147791 minus DMSO, mean n=3",-1.00%
same,DPSI FGFR1OP2_1 chr12:27004715-27004828,"9147791 minus DMSO, mean n=3",-11.00%
same,DPSI FIP1L1_1 chr4:53975538-53975646,"9147791 minus DMSO, mean n=3",-4.33%
same,DPSI GGCT_1 chr7:30504943-30505080,"9147791 minus DMSO, mean n=3",3.33%
same,DPSI GGCT_1 chr7:30506676-30506822,"9147791 minus DMSO, mean n=3",3.33%
same,DPSI GLK_1 chr2:39388587-39388650,"9147791 minus DMSO, mean n=3",-0.33%
same,DPSI GM130_1 chr9:130069293-130069374,"9147791 minus DMSO, mean n=3",-9.67%
same,DPSI GRB10_1 chr7:50651400-50651538,"9147791 minus DMSO, mean n=3",-0.33%
same,DPSI KIF13A_1 chr6:17879324-17879428,"9147791 minus DMSO, mean n=3",-1.33%
same,DPSI MACF1_1 chr1:39616720-39616782,"9147791 minus DMSO, mean n=3",3.33%
same,DPSI MACF1_5 chr1:39719179-39719289,"9147791 minus DMSO, mean n=3",-13.67%
same,DPSI MAP3K7_1 chr6:91310992-91311072,"9147791 minus DMSO, mean n=3",0.33%
same,DPSI MARK3_1 chr14:103034592-103034618,"9147791 minus DMSO, mean n=3",-2.67%
same,DPSI MARK3_1 chr14:103036246-103036290,"9147791 minus DMSO, mean n=3",-1.33%
same,DPSI MBD1_1 chr18:46054554-46054721,"9147791 minus DMSO, mean n=3",-9.33%
same,DPSI MBNL2_1 chr13:96807051-96807104,"9147791 minus DMSO, mean n=3",0.33%
same,DPSI MFF_1 chr2:227901637-227901749,"9147791 minus DMSO, mean n=3",4.33%
same,DPSI MRIP_1 chr17:17024646-17024708,"9147791 minus DMSO, mean n=3",1.00%
same,DPSI MVK_1 chr12:108501990-108502134,"9147791 minus DMSO, mean n=3",11.00%
same,DPSI MVK_1 chr12:108503583-108503738,"9147791 minus DMSO, mean n=3",20.33%
same,DPSI NAP1L1_1 chr12:74747418-74747520,"9147791 minus DMSO, mean n=3",4.67%
same,DPSI NAP1L1_1 chr12:74748956-74749041,"9147791 minus DMSO, mean n=3",4.33%
same,DPSI NPHP3_1 chr3:133898264-133898347,"9147791 minus DMSO, mean n=3",-1.00%
same,DPSI NUMB_2 chr14:72815742-72815885,"9147791 minus DMSO, mean n=3",0.67%
same,DPSI NUMB_2 chr14:72820542-72820835,"9147791 minus DMSO, mean n=3",6.67%
same,DPSI PDCL_1 chr9:124628716-124628892,"9147791 minus DMSO, mean n=3",1.33%
same,DPSI POLDIP3_1 chr22:41327919-41328006,"9147791 minus DMSO, mean n=3",-3.67%
same,DPSI POMT1_1 chr9:133368281-133368521,"9147791 minus DMSO, mean n=3",5.67%
same,DPSI POMT1_1 chr9:133371321-133371428,"9147791 minus DMSO, mean n=3",5.67%
same,DPSI RAI14_1 chr5:34849436-34849522,"9147791 minus DMSO, mean n=3",3.67%
same,DPSI RAN_1 chr12:129923082-129923127,"9147791 minus DMSO, mean n=3",-2.00%
same,DPSI RPS24_1 chr10:79467729-79467746,"9147791 minus DMSO, mean n=3",1.67%
same,DPSI SEC24B_1 chr4:110622281-110622386,"9147791 minus DMSO, mean n=3",-4.00%
same,DPSI SETD5_1 chr3:9453533-9453572,"9147791 minus DMSO, mean n=3",-1.33%
same,DPSI SMN2_1 chr5_h2_hap1:475625-475826,"9147791 minus DMSO, mean n=3",0.33%
same,DPSI SMN2_2 chr5_h2_hap1:466192-466246,"9147791 minus DMSO, mean n=3",1.67%
same,DPSI SPAG9_1 chr17:46408223-46408261,"9147791 minus DMSO, mean n=3",-6.67%
same,DPSI SRPK2_1 chr2:104553464-104553557,"9147791 minus DMSO, mean n=3",-1.00%
same,DPSI SRPK2_1 chr2:104553930-104554023,"9147791 minus DMSO, mean n=3",0.00%
same,DPSI TPM1_1 chr15:61140450-61140525,"9147791 minus DMSO, mean n=3",1.67%
same,DPSI TPM1_1 chr15:61140965-61141040,"9147791 minus DMSO, mean n=3",-1.67%
same,DPSI TRIM37_1 chr17:54433741-54433857,"9147791 minus DMSO, mean n=3",-4.67%
same,DPSI ZNF827_1 chr4:146903692-146903724,"9147791 minus DMSO, mean n=3",2.33%
same,DPSI ZNF827_1 chr4:146905581-146905589,"9147791 minus DMSO, mean n=3",-1.00%
same,AS events with DPSI ≤ -10%,[1],2
same,AS events with DPSI ≥ 10%,[1],0
same,AS events with P ≤ 0.05,[1],9
